Values after ≈ are worked out from the molar mass of the structure shown. “Also recorded” adds a separate entry of the source. Like-named read-outs stand apart in the source and are kept apart here.
Experiments:
[1] = test system: C. parvum oocysts; assay: Intact C. parvum oocyst assay (Example III), immunofluorescence; type: cell-based, Cryptosporidium parvum; details: for Parasite - Mean parasite count/field (12 fields analyzed) / %Inhib - Percent inhibitation of parasite infection: 48 hr.; for %Inhib - Percent inhibitation of parasite infection: listed as New NTZdes
Method: Each concentration of nitazoxanide and the media controls contained 0.025% DMSO as a constant. The experiment used a cell culture of MDBKF5D2 Cells grown in 7 mm chambers, and as Cryptosporidium parvum: GCH1 oocysts, 5 X 10^4 per well, and was conducted to compare paromomycin (positive control) against nitazoxanide (experimental drug). […] 5 x 104 C. parvum oocysts per well are incubated in the pre-mentioned concentrations of nitazoxanide at 37°C (8% CO2) on confluent MDBKF5D2 cell monolayers. The level of infection in each well was determined and computer analyzed by an immunofluorescence assay at 48 hours. […] (Medium control count - Drug test count)/(Medium control count)x 100 [formula] Conc. - µg/ml; Parasite - Mean parasite count/field (12 fields analyzed); %Inhib - Percent inhibitation of parasite infection; % Tox- Percent toxicity to cells by the drug.

[2] = test system: MDBKF5D2 cell monolayers; assay: Toxicity testing assay (Example III), MTS/PMS; type: cell-based
Method: 200µl of medium containing nitazoxanide solution at the pre-mentioned concentrations and the proper controls were introduced into two wells of a 96 well plate containing confluent MDBKFD2 cell monolayers and two wells without monolayers. […] The plate was returned to the incubator in the dark to develop for 2 hours. At 2 hours, 100 µl of each supernatant was transferred to a new microtiter plate and read in the ELISA reader at 490 nm. Results were recorded and analyzed. […] (OD medium - OD drug x 100)/(OD medium) [formula] […]

[3] = test system: RH strain of Toxoplasma gondii; assay: Toxoplasma gondii growth in MRC5 fibroblast cultures, ELISA; type: cell-based
[4] = test system: M. intracellular ATCC 13950; assay: MIC by standard agar dilution; type: cell-based, Mycobacterium intracellular; details: Mycobacterium, ATCC13950, 504 h, Middlebrook 7H11 agar, 3 weeks
[5] = test system: Fasciola hepatica; assay: In vitro culture of mature flukes
Method: The in vitro efficacy of nitazoxanide and desacetyl-nitazoxanide was tested against Fasciola hepatica. Mature F. hepatica were recovered from the bile ducts of 3 calf livers condemned due to fasciolosis at the Louisiana Veterinary Medical Diagnostic Laboratory at the Hardy's Meat […], Bunkie, LA. Flukes were washed in sterile saline for 1 hour and transferred to sterile saline or RPMI (pH 7.4) for an additional 3 hours. Flukes were then held in sterile RPMI-rabbit serum (50:50 v/v) or sterile RPMI (pH 7.4) overnight at 37°C with 5% CO2. In vitro culture (37°C, 5% CO2) was done according to a modification of the method of Ibarra and Jenkins ([…]. 70:655-661, 1984). […] Only flukes that had normal activity and morphology were used. […] Two control flukes were included in each replicate, […] and one in unmedicated culture media […]. Flukes were examined for the effects of drug treatment as evidenced by death, motility disturbances or morpholgic changes as compared to untreated control flukes, using a backlighted panel and a lighted 3X magnifying lens.

[6] = test system: MRC5 fibroblasts; assay: Toxicity on the cell monolayer in T. gondii cultures; details: 72 hours
[7] = test system: C. parvum oocysts; assay: Intact C. parvum oocyst assay (Example II), immunofluorescence; type: cell-based, Cryptosporidium parvum; details: 2 mg/ml; for inhibition at 2000 µg/mL: Cryptosporidium parvum, read-out: Percent Inhibition
Method: Nitazoxanide was dissolved in sterile dimethylsulfoxide (DMSO) and tested against intact C. parvum oocysts infected cell monolayers at concentrations of 100 µg/ml, 10 µg/ml/l µg/ml and 0.1 µg/ml. A second trail was performed which tested nitazoxanide at the additional concentrations of 20, 2, 0.2 and 0.02 µg/ml. These concentrations were achieved by serial dilutions with complete DMEM medium to yield a final DMSO concentration of 0.5%. The medium control also contacted 0.5% DMSO.
The experiment used a cell culture of MDBKF5D2 Cells grown in 7 mm chambers, and as Cryptosporidium parvum: GCH1 oocysts, 5 X 10^4 per well, and was conducted to compare paromomycin (positive control) against nitazoxanide (experimental drug). Materials included Immune Anti-Cryptosporidium parvum Sporozoite Rabbit Serum (0.1%) and Fluorescein-Conjugated Goat Anti-Rabbit Antibody (1%).
5 x 104 C. parvum oocysts per well were incubated in nitazoxanide (100, 20, 10, 2, 1, 0.2, 0.1 and 0.02 µg/ml) at 37°C (8% CO2) on confluent MDBKF5D2 cell monolayers. The level of infection in each well was determined and analyzed by an immunofluorescence assay at 24 to 48 hours. Percent Inhibition was calculated by subtracting the mean parasite count/10 field in the drug test wells from the mean parasite count/10 fields in the medium control (no drug), dividing by the medium control count, and then multiplying by 100. (Medium control count - Drug test count)/(Medium control count)x 100 [formula]

[8] = test system: MDBKF5D2 cell monolayers; type: cell-based; details: cattle, 2 mg/ml
Method: The drug was incubated on the monolayers at 37°C and 8% CO2. At 24 hours (trial 1) and 48 hours (trial 2), MTS (Owen's solution) the PMS were added to each well at concentrations of 333 µg/ml and 25 µM respectively. The plate was returned to the incubator in the dark to develop for two hours. At two hours, 100 µl of each supernatant was transferred to a new microtiter plate and read in the ELISA reader at 490nm. Results were recorded and analyzed. Percent toxicity was calculated by subtracting the mean optical density (OD) of the drug supernatants from the mean optical density (OD) of the medium control supernatants (no drug), dividing by the OD of the medium control and multiplying by 100. (OD medium - OD drug)/(OD medium)x 100 [formula]

[9] = 48 hr., Conc 0.01 µg/ml, 0.025% DMSO
[10] = 48 hr., Conc 0.1 µg/ml, 0.025% DMSO
[11] = 48 hr., Conc 1 µg/ml, 0.025% DMSO
[12] = 48 hr., Conc 10 µg/ml, 0.025% DMSO

Q: For `O=C(Nc1ncc([N+](=O)[O-])s1)c1ccccc1O` [Tizoxanide, desacetyl-nitazoxanide], which “Parasite - Mean parasite count/field (12 fields analyzed)” value (from here on “Parasite - Mean parasite count/field”) ([1]; Conc 0.01 µg/ml, 0.025% DMSO) is on record?
A: The value was 749.33.

Q: And the “Parasite - Mean parasite count/field” value ([1]; Conc 0.1 µg/ml, 0.025% DMSO)?
A: Its value is 649.86.

Q: What about the “Parasite - Mean parasite count/field” value ([1]; Conc 1 µg/ml, 0.025% DMSO) of the same compound?
A: Its value is 39.92.

Q: And the “%Inhib - Percent inhibitation of parasite infection” value ([1]; Conc 1 µg/ml, 0.025% DMSO)?
A: Its value is 93.65%.

Q: What about the “Parasite - Mean parasite count/field” value ([1]; Conc 10 µg/ml, 0.025% DMSO) of the same compound?
A: Its value is 13.75.

Q: And the “%Inhib - Percent inhibitation of parasite infection” value ([1]; Conc 10 µg/ml, 0.025% DMSO)?
A: The value was 97.81%.

Q: And the inhibition at 0.01 µg/mL ([1]; Cryptosporidium parvum, 48 h, Conc 0.01 µg/ml, 0.025% DMSO, read-out: %Inhib - Percent inhibitation of parasite infection)?
A: The inhibition at 0.01 µg/mL was ≤ 0%.

Q: And the inhibition at 0.1 µg/mL ([1]; Cryptosporidium parvum, 48 h, Conc 0.1 µg/ml, 0.025% DMSO, read-out: %Inhib - Percent inhibitation of parasite infection)?
A: The inhibition at 0.1 µg/mL was ≤ 0%.

Q: And the inhibition at 1 µg/mL ([1]; Cryptosporidium parvum, 48 h, Conc 1 µg/ml, 0.025% DMSO, read-out: %Inhib - Percent inhibitation of parasite infection)?
A: The inhibition at 1 µg/mL was 94%.

Q: And the inhibition at 10 µg/mL ([1]; Cryptosporidium parvum, 48 h, Conc 10 µg/ml, 0.025% DMSO, read-out: %Inhib - Percent inhibitation of parasite infection)?
A: The inhibition at 10 µg/mL was 98%.

Q: And the “%Tox - Percent toxicity to cells by the drug” value (shortened to “%Tox - Percent toxicity”) [2, 9]?
A: Its value is 4.36%.

Q: What about the “Score (cytotoxicity score)” value [2, 9] of the same compound?
A: Its value is 0 (0.5% toxicity = 0).

Q: What about the Tox/OD ([2]; 48 hr., Conc 0.01 µg/ml, 0.025% DMSO, OD at 490 nm) of the same compound?
A: Its Tox/OD is 1.721.

Q: And the “%Tox - Percent toxicity” value [2, 10]?
A: The value was 16.29%.

Q: And the “Score (cytotoxicity score)” value [2, 10]?
A: Its value is 1 (6-25% toxicity = 1).

Q: And the Tox/OD ([2]; 48 hr., Conc 0.1 µg/ml, 0.025% DMSO, OD at 490 nm)?
A: The Tox/OD was 1.506.

Q: What about the “%Tox - Percent toxicity” value [2, 11] of the same compound?
A: Its value is 4.97%.

Q: And the “Score (cytotoxicity score)” value [2, 11]?
A: Its value is 0 (0.5% toxicity = 0).

Q: What about the Tox/OD ([2]; 48 hr., Conc 1 µg/ml, 0.025% DMSO, OD at 490 nm) of the same compound?
A: Its Tox/OD is 1.710.

Q: And the “%Tox - Percent toxicity” value [2, 12]?
A: The value was 81.27%.

Q: What about the “Score (cytotoxicity score)” value [2, 12] of the same compound?
A: Its value is 4 (76-100% toxicity =- 4).

Q: And the Tox/OD ([2]; 48 hr., Conc 10 µg/ml, 0.025% DMSO, OD at 490 nm)?
A: Its Tox/OD is “.337”.

Q: And the “concentration with significant effect (inhibition)” value ([3]; 72 hours)?
A: Its value is ≥ 0.6 mg/L.

Q: And the IC50 ([3]; Toxoplasma gondii, MRC5, 72 hours, estimated from regression analysis, read-out: 50% inhibitory concentration)?
A: The IC50 was 1.2 µg/mL (≈ 4.52 µM).

Q: And the “concentrations at which a marked inhibition of Toxoplasma growth could be observed” value ([3]; alteration of the parasitophorous vacuole, no marked alteration of the parasite itself)?
A: Its value is “approximately 1.2 mg/L”.

Q: And the MIC [4]?
A: Its MIC is 4 µg/mL (≈ 15.1 µM).

Q: And the “effects on flukes (death, motility disturbances)” value (shortened to “effects on flukes”) ([5]; 1 µg treatment, listed as D-NTZ)?
A: The value was “Some slowing of activity was noted in the 1 µg group at 42-74 hours; also recorded: only 3 active and one moribund fluke remained alive at 91 hours; also recorded: at 115 hours only one sluggish fluke remained”.

Q: What about the “effects on flukes” value ([5]; 3 µg treatment, listed as D-NTZ) of the same compound?
A: The value was “Reduced activity in some individuals was seen by 24 hours in the 5 µg and 3 µg groups with a somewhat slower onset at 3 µg; also recorded: all were dead in the 3 and 5 µg treatment wells by 50 hours except one sluggish fluke in each group”.

Q: And the “effects on flukes” value ([5]; 5 µg treatment, listed as D-NTZ)?
A: Its value is “Reduced activity in some individuals was seen by 24 hours; also recorded: all were dead in the 3 and 5 µg treatment wells by 50 hours except one sluggish fluke in each group”.

Q: And the “effects on flukes” value ([5]; 10 µg treatment, listed as D-NTZ)?
A: The value was “reduced activity was noted at 1, 3 and 4 hours; also recorded: all were moribund or dead by 7 hours”.

Q: What about the “effects on flukes” value ([5]; 25 µg treatment, listed as D-NTZ) of the same compound?
A: The value was “Four of 7 flukes in the 25 µg treatment were moribund, two were active, and one was sluggish within the first hour; also recorded: all were dead except two sluggish flukes by three hours; also recorded: only one sluggish fluke remained alive after four hours”.

Q: What about the “effects on flukes” value ([5]; 50 µg treatment) of the same compound?
A: Its value is “moribund or dead within one hour”.

Q: What about the “effects on flukes” value ([5]; 100 µg treatment) of the same compound?
A: Its value is “moribund or dead within one hour”.

Q: What about the “time to rapid fluke death” value ([5]; in vitro medication rate 10µg) of the same compound?
A: Its value is 6 to 7 h.

Q: What about the “time to rapid fluke death” value ([5]; in vitro medication rate 25 µg) of the same compound?
A: Its value is ≤ 4 h.

Q: And the “time to rapid fluke death” value ([5]; in vitro medication rates of >50 µg)?
A: Its value is ≤ 1 h.

Q: And the “concentrations with marked toxicity on the cell monolayer” value [6]?
A: Its value is ≥ 2500 ng/mL.

Q: How did the inhibition at 2000 µg/mL ([7]; Trial 1: 24 hrs) turn out when `NC[C@@H]1O[C@H](O[C@H]2[C@@H](O)[C@H](O[C@@H]3[C@@H](O)[C@H](N)C[C@H](N)[C@H]3O[C@H]3O[C@H](CO)[C@@H](O)[C@H](O)[C@H]3N)O[C@@H]2CO)[C@H](N)[C@@H](O)[C@@H]1O` [Paromomycin, reference compound] was run?
A: The inhibition at 2000 µg/mL was 51%.

Q: What about the inhibition at 2000 µg/mL ([7]; Trial 2: 48 hrs) of the same compound?
A: The inhibition at 2000 µg/mL was 74%.

Q: And the “Mean (+ SD) Parasite Count/10 Fields” value ([7]; Trial 1: 24 hrs)?
A: The value was 482(±47.1).

Q: And the “Mean (+ SD) Parasite Count/10 Fields” value ([7]; Trial 2: 48 hrs)?
A: Its value is 580(+33.42).

Q: What about the “Percent Toxicity” value ([8]; 24 h) of the same compound?
A: Its value is 23.8%.

Q: What about the “Percent Toxicity” value ([8]; 48 h) of the same compound?
A: The value was 40.8%.

Q: And the “Parasite - Mean parasite count/field” value ([1]; Conc 2000 µg/ml, aqueous media)?
A: Its value is 115.75.

Q: And the inhibition at 2000 µg/mL ([1]; Cryptosporidium parvum, 48 h, Conc 2000 µg/ml, aqueous media, read-out: %Inhib - Percent inhibitation of parasite infection)?
A: The inhibition at 2000 µg/mL was 83%.

Q: What about the inhibition at 2000 µg/mL ([1]; Cryptosporidium parvum, concentration of 2,000 µg/ml, positive control, Examples II and III, read-out: inhibition (range over the experiments)) of the same compound?
A: The inhibition at 2000 µg/mL was 51 to 83%.

Q: What about the “times less effective (than nitazoxanide)” value ([1]; same experimental condition, positive control) of the same compound?
A: Its value is 2,000 times.

Q: What about the “%Tox - Percent toxicity” value ([2]; cattle, 48 h, 2000 µg/ml) of the same compound?
A: The value was 39.79%.

Q: And the Tox/OD ([2]; cattle, 48 h, 2000 µg/ml)?
A: The Tox/OD was 1.219.
